The target in the assay is T1, human androgen receptor (hAR) (Homo sapiens, UniProt P10275).
T1 sequence (P10275 1-920): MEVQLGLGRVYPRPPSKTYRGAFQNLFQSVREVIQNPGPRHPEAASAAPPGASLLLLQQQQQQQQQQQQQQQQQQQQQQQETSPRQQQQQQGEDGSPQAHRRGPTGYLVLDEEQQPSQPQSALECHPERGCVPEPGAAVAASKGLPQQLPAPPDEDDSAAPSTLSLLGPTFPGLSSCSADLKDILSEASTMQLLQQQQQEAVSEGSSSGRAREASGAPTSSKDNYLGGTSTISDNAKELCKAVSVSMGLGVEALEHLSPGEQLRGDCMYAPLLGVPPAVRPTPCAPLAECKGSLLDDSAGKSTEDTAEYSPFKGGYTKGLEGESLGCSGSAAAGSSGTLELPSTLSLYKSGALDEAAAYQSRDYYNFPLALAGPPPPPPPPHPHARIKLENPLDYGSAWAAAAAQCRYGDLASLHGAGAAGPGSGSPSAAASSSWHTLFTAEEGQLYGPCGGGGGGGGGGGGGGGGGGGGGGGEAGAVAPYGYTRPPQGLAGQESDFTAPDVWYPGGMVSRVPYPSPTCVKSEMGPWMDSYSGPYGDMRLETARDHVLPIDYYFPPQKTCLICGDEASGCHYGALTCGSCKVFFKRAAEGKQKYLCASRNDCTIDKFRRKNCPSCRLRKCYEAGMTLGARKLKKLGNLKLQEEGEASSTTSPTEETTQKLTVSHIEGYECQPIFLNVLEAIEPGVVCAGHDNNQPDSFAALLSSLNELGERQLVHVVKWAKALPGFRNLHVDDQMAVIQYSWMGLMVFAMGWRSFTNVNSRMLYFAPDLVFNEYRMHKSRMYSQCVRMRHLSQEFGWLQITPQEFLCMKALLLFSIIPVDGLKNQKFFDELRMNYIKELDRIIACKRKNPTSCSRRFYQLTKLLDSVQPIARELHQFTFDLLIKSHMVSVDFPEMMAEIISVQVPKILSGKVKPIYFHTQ
Put plainly: Functional response test: hAR transactivation (luciferase reporter) in HALP2 cells. In kind it is cell-based. The note with it: for EC50: agonism, HALP2 cells (HeLa, hAR + ARE-luciferase), 20 hours at 37° C. The source says: This test constitutes a method of identifying pure or partial agonists which mimic the effects of natural hormones, such as DHT (dihydrotestosterone) in the present case or, on the other hand, antagonists which inhibit them.
For this transactivation test, plasmids encoding a reporter gene and the human androgen receptor (hAR) are introduced together by transfection into the HeLa cell line. The reporter plasmid contains luciferase cDNA under the control of the AREs contained in the promoter sequences of the probasin gene (3xpbAREminicoll-luciferase/pGL3-puro). The expression of the reporter gene constitutes an indication of the transcriptional activity of hAR. It also encodes a protein allowing the cells expressing it to resist a treatment with puromycin. The plasmid encoding hAR contains the cDNA of hAR under the control of the Cytomegalovirus (CMV) promoter. It also encodes a protein allowing the cells expressing it to resist a treatment with neomycin. The treatment of cells with increasing amounts of potentially agonistic compounds will increase the expression of the reporter gene. To detect antagonists, on the other hand, increasing doses of test compounds are tested in the presence of […] of DHT. The expression of the reporter gene, which is constant for each dose of DHT, decreases when the concentration of the test compounds increases.
For this test, HeLa cells were obtained from the American Type Culture Collection (Rockville, Md.) and cultivated in DMEM medium containing 4.5 g/l of glucose, supplemented with Glutamax and with nonessential amino-acids and with 10% of foetal calf serum (SVF; Dominique Dutscher).
On the day before transfection, a million cells were seeded in DMEM medium without phenol red, supplemented with Glutamax and with desteroided SVF (5%) in Petri dishes. The cells were transfected with 4 μg of the puromycin resistance plasmids pcDNA3-hAR and 3xpbAREminicoll-luciferase/pGL3 using the reagent “Lipofectamine plus” (Invitrogen), following the supplier's recommendations. The day after transfection, the cells were seeded to different cell densities (10,000 to 100,000 cellules per Petri dish). Two days after transfection, the transfected cells were selected in DMEM medium without phenol red, supplemented with Glutamax and with desteroided SVF (5%) containing 400 μg/mL of G418 (Invitrogen) and 150 ng/mL of puromycin (Sigma). The culture medium was renewed weekly until resistant clones appeared. The resistant clones were removed and amplified before being tested for their functional response. […]
The functional response test was conducted on 96-well plates. The HALP2 cells were seeded (30,000 cells per well) 24 hours before the phase of stimulation in DMEM medium containing 4.5 g/L of glucose, supplemented with Glutamax and nonessential amino-acids, and with desteroided SVF (5%).
On the day of stimulation, the seeding medium was replaced by DMEM medium without phenol red, supplemented with Glutamax and with desteroided SVF (5%). […] The cells were placed in contact with the compounds for 20 hours at 37° C.

[1] abbreviates: antagonism, concentration which increases the EC50 of the DHT by a factor of 2, Schild regression, HALP2 cells.

Read-outs that look alike come from different tables or passages of the source.

We go through 33 compounds from patent US8168667B2 (Galapagos NV, priority 2006, dated 2012).

`CCOCCCN1C(=O)N(c2ccc(Cl)c(C(F)(F)F)c2)C(=O)C1c1ccc(O)cc1` (stereo not shown) [Example 86]: the concentration giving a half-maximal response (EC50) was found to be 49 nM. For the same compound, the “KSchild (nM) potency” value under setting [1] stood at 48.99 nM.
As to `N#CCN1C(=O)N(c2ccc(C#N)c(C(F)(F)F)c2)C(=O)C1c1ccc(O)cc1` (stereo not shown) [Example 90], the “KSchild (nM) potency” value worked out at 282.84 nM.
In the case of `CN(C)CCN1C(=O)N(c2ccc(F)c(Cl)c2)C(=O)C1c1ccc(O)cc1` (stereo not shown) [Example 119], the EC50 turned out to be 283 nM. The “KSchild (nM) potency” value under setting [1] was 282.84 nM.
Consider `O=C1C(c2ccc(O)cc2)N(Cc2ccsc2)C(=O)N1c1ccc(F)c(Cl)c1` (stereo not shown) [Example 51], for which the EC50 amounted to 15 nM. In addition, the “KSchild (nM) potency” value under setting [1] came out at 15 nM.
On to `C#CCN1C(=O)N(c2ccc(Cl)c(C(F)(F)F)c2)C(=O)C1c1ccc(O)cc1` (stereo not shown) [Example 68], for which the “KSchild (nM) potency” value came out at 24.49 nM.
In the case of `C=CCN1C(=O)N(c2ccc([N+](=O)[O-])cc2)C(=O)C1c1ccc(O)cc1` (stereo not shown) [Example 65], the “KSchild (nM) potency” value is 5.43 nM.
In the case of `O=C1C(c2ccc(O)cc2)N(Cc2ccc3c(c2)OCO3)C(=O)N1c1ccc(F)c(C(F)(F)F)c1` (stereo not shown) [Example 102], the EC50 was determined as 49 nM. Besides, the “KSchild (nM) potency” value under setting [1] amounted to 48.99 nM.
With `CN(C)CCN1C(=O)N(c2ccc(F)c(C(F)(F)F)c2)C(=O)C1c1ccc(O)cc1` (stereo not shown) [Example 118], the EC50 was 245 nM. Besides, under setting [1], the “KSchild (nM) potency” value is 244.95 nM.
For `CC1(c2ccc(O)cc2)C(=O)N(c2ccc(Cl)c(Cl)c2)C(=O)N1CCCO` (stereo not shown) [Example 147] the same measures were 300 nM and 300 nM.
For `CN1C(=O)N(c2ccc(Cl)c(Cl)c2Cl)C(=O)C1(C)c1ccc(O)cc1` (stereo not shown) [Example 30, 3,4-dimethyl-4-(4-hydroxyphenyl)-1-(2,3,4-trichlorophenyl)imidazolidine-2,5-dione] the same measures were 15 nM and 15 nM.
Turning to `CC1(c2ccc(O)cc2)C(=O)N(c2ccc(C#N)c(C(F)(F)F)c2)C(=O)N1CCC#N` (stereo not shown) [Example 149], the “KSchild (nM) potency” value stood at 60 nM.
Consider `CCCN1C(=O)N(c2ccc(Cl)c(C(F)(F)F)c2)C(=O)C1c1ccc(O)cc1` (stereo not shown) [Example 57], for which the “KSchild (nM) potency” value amounted to 34.64 nM.
In the case of `C#CCN1C(=O)N(c2ccc(C#N)c(C(F)(F)F)c2)C(=O)[C@@]1(C)c1ccc(OC)cc1` [Example 154.1, (R)-4-[2,5-dioxo-4-(4-methoxyphenyl)-4-methyl-3-(2-propynyl)imidazolidin-1-yl]-2-trifluoromethylbenzonitrile], the “KSchild (nM) potency” value worked out at 15 nM.
`O=C1C(c2ccc(O)cc2)N(CCO)C(=O)N1c1ccc([N+](=O)[O-])c(C(F)(F)F)c1` (stereo not shown) [Example 138]: the “KSchild (nM) potency” value is listed as 600 nM.
Turning to `N#CCCN1C(=O)N(c2ccc([N+](=O)[O-])c(C(F)(F)F)c2)C(=O)C1c1ccc(O)cc1` (stereo not shown) [Example 122], the “KSchild (nM) potency” value came to 244.95 nM.
For the compound `C=CCN1C(=O)N(c2ccc(Cl)c(C(F)(F)F)c2)C(=O)C1c1ccc(O)cc1` (stereo not shown) [Example 61], the EC50 was 34.6 nM. Also, under setting [1], the “KSchild (nM) potency” value is 34.64 nM.
For `O=C1C(c2ccc(O)cc2)N(Cc2ccsc2)C(=S)N1c1cccc(Cl)c1Cl` (stereo not shown) [Example 17, 1-(2,3-dichlorophenyl)-4-(4-hydroxyphenyl)-3-[(thiophen-3-yl)methyl]-2-thioxo-imidazolidin-5-one] the same measures were 2000 nM and 2000 nM.
Take `CCCN1C(=O)N(c2ccc(F)c(F)c2)C(=O)C1c1ccc(O)cc1` (stereo not shown) [Example 56]: the concentration for a half-maximal effect (EC50) turned out to be 34.6 nM. Further, under setting [1], the “KSchild (nM) potency” value came out at 34.64 nM.
Take `O=C1C(c2ccc(O)cc2)N(CCO)C(=O)N1c1ccc(Cl)c(C(F)(F)F)c1` (stereo not shown) [Example 141]: the “KSchild (nM) potency” value came out at 17.32 nM.
`CN1C(=O)N(c2ccc([N+](=O)[O-])cc2)C(=O)C1c1ccc(O)cc1` (stereo not shown) [Example 50]: the “KSchild (nM) potency” value amounted to 9.9 nM.
With `CN(C)CCN1C(=O)N(c2cccc(C(F)(F)F)c2)C(=O)C1c1ccc(O)cc1` (stereo not shown) [Example 120], the half-maximal effective concentration (EC50) amounted to 424 nM. Further, under setting [1], the “KSchild (nM) potency” value came out at 424.26 nM.
Take `N#CCCN1C(=O)N(c2ccc(Cl)c(Cl)c2)C(=O)C1c1ccc(O)cc1` (stereo not shown) [Example 123]: the EC50 is 42.4 nM. For the same compound, the “KSchild (nM) potency” value under setting [1] is 30 nM.
Consider `CN1C(=O)N(c2ccc(C#N)c(C(F)(F)F)c2)C(=O)C1(C)c1ccc(OCCO)cc1` (stereo not shown) [Example 343], for which the “KSchild (nM) potency” value came to 60 nM.
As to `N#CCN1C(=O)N(c2ccc(F)c(C(F)(F)F)c2)C(=O)C1c1ccc(O)cc1` (stereo not shown) [Example 94], the EC50 was 300 nM. The “KSchild (nM) potency” value under setting [1] is on record as 300 nM.
With `C#CCN1C(=O)N(c2ccc(Cl)c(Cl)c2)C(=O)C1(C)c1ccc(O)cc1` (stereo not shown) [Example 21, 1-(3,4-dichlorophenyl)-4-(4-hydroxyphenyl)-4-methyl-3-(2-propynyl)imidazolidine-2,5-dione], the “KSchild (nM) potency” value stood at 3 nM.
Regarding `COc1ccc(C2(C)C(=O)N(c3ccc(C#N)c(C(F)(F)F)c3)C(=O)N2C)cc1F` (stereo not shown) [Example 162, 4-[3,4-dimethyl-2,5-dioxo-4-(3-fluoro-4-methoxyphenyl)imidazolidin-1-yl]-2-trifluoromethylbenzonitrile], the “KSchild (nM) potency” value amounted to 40 nM.
As for `CN1C(=O)N(c2ccc(F)c(C(F)(F)F)c2)C(=O)C1c1ccc(O)cc1` (stereo not shown) [Example 48], the EC50 was 60 nM. The “KSchild (nM) potency” value under setting [1] amounted to 48.99 nM.
`C=CCN1C(=O)N(c2ccc(F)c(Cl)c2)C(=O)C1c1ccc(O)cc1` (stereo not shown) [Example 63]: the half-maximal effective concentration (EC50) was 69.3 nM. Also, the “KSchild (nM) potency” value under setting [1] came to 69.28 nM.
Regarding `O=C1C(c2ccc(O)cc2)N(Cc2ccsc2)C(=O)N1c1ccc(Cl)c(Cl)c1` (stereo not shown) [Example 10, 1-(3,4-dichlorophenyl)-4-(4-hydroxyphenyl)-3-[(thiophen-3-yl)methyl]imidazolidine-2,5-dione], the 50% effective concentration (EC50) stood at 16.4 nM. Besides, the “KSchild (nM) potency” value under setting [1] amounted to 13.69 nM.
As to `CCCN1C(=O)N(c2ccc(Cl)c(Cl)c2)C(=O)C1c1ccc(O)cc1` (stereo not shown) [Example 55], the EC50 amounted to 54.8 nM. The “KSchild (nM) potency” value under setting [1] is 34.64 nM.
As to `CN1C(=O)N(c2ccc(C#N)c(C(F)(F)F)c2)C(=O)C12CCc1cc(O)ccc12` (stereo not shown) [Example 181, 4-[2′,3′-dihydro-2,5-dioxo-5′-hydroxy-3-methylspiro(imidazolidin-4,1′(1H)inden)-1-yl]-2-trifluoromethylbenzonitrile], the “KSchild (nM) potency” value was 6 nM.
In the case of `O=C1C(c2ccc(O)cc2)N(Cc2ccc3c(c2)OCO3)C(=O)N1c1ccc(Cl)c(Cl)c1` (stereo not shown) [Example 99], the half-maximal effective concentration (EC50) stood at 69.3 nM. Also, the “KSchild (nM) potency” value under setting [1] was 69.28 nM.
Consider `COc1ccc(C2(CF)C(=O)N(c3ccc(Cl)c(Cl)c3)C(=O)N2C)cc1` (stereo not shown) [Example 169, 1-(3,4-dichlorophenyl)-4-fluoromethyl-4-(4-methoxyphenyl)-3-methylimidazolidine-2,5-dione], for which the EC50 came to 10 nM. The “KSchild (nM) potency” value under setting [1] came to 10 nM.
